The values below come from patent publication US12178878B2, “Amyloid peptide scaffolds coordinate with Alzheimer's disease drugs” (The University of Massachusetts, priority 2018, dated 2024).

Where two headings read alike, the source gives them in different places.

In test [1] the test system is […] (SEQ ID NO: 4) amyloid peptide. In kind it is binding. As to conditions: for capturing efficiency: relative to 2nd pellet wash, UV-Vis; for AD compound captured, Wash 1 / AD compound captured, Wash 2 / AD compound captured, Wash 3: 1000 μM inhibitor solution added; for AD compound captured, Wash 1: 1st pellet wash; for AD compound captured, Wash 2: 2nd pellet wash; for AD compound captured, Wash 2 / AD compound captured, Wash 3: room temperature; for AD compound captured, Wash 3: 3rd pellet wash. As to the method: Amyloid Fibrils Preparation and Characterization. For the formation of fibrils, the amyloid peptides were dispersed in DI water at a 10 mg/ml, vortexed, heated at 60° C. for 30 sec, and sonicated for 15 mins (this cycle was repeated 10 times overall), and finally left overnight at room temperature to form a hydrogel.
A control using 1 mL of 0.1 M PBS (no inhibitor) was also prepared. The complexed amyloid/inhibitor materials were then transferred to 5 mL conical Eppendorf tubes, and centrifuged for 15 mins at 4,400 rpm (14° C.). The supernatant was decanted, and 2 mL of DI water were subsequently added to wash the pellet (followed by vortexing until obtaining a homogenous dispersion) in order to remove any unbound inhibitor. The samples were then centrifuged again at the same conditions so as to pelletize the amyloid materials, and the supernatant was decanted. Another 2 mL of DI water were then added into the pellet, the mixture was vortexed, and the physically bound inhibitor into the amyloid peptides was quantified by UV-Vis between 200-600 nm and MS. This step is denoted as wash 1 in our study. Two additional pellet purification cycles were realized with replacement of the decanted volume each time with 2 mL of fresh DI water (denoted as wash 2 and wash 3 respectively). The inhibitor-containing amyloid peptides were normalized at 400 nm over the respective no inhibitor-containing ones at the specific washing step.

Test [2] shares this test system. Put plainly: Incubation of amyloid gel containing inhibitor in PBS at 37° C., drug retained. It counts as binding. Particulars: YFTGAIIGNFY 5 mg/mL; for AD compound captured after incubation, Wash 2: 2nd pellet wash; for AD compound captured after incubation, Wash 3: 3rd pellet wash. As to the method: Incubation of Amyloid Gels-Containing Inhibitors in PBS at 37° C. […] (SEQ ID NO: 4) amyloid gels were prepared at 10 mg/mL (1 mL) and a 0.1 M PBS solution of Donepezil was added at 1000 μM (1 mL) and was left to stir overnight (the final peptide concentration was diluted to 5 mg/mL). A control of 1 mL 0.1 M PBS was also prepared. The complexed amyloid/inhibitor was sequentially centrifuged, and the same volume of water (2 mL) was added in the pellet to wash it (followed by vortexing until obtaining a complete dispersion) and remove the unbound inhibitor (wash 1). The sample was centrifuged, the pellet was isolated, and 2 mL of 0.1 M PBS was added, followed by overnight incubation under stirring at 37° C. The inhibitor-containing peptide was then pelletized, the supernatant was decanted, and the peptide/inhibitor dispersion was quantified after addition of 2 mL water (wash 2). A second washing step with 2 mL fresh water was subsequently realized and the pellet was quantified again (wash 3). Example 2: Coordination of the Designed Amyloid Peptides with AD drugs in Dilute Solution.

Setting [3] is: YFTGAIIGNFY gel 5 mg/mL, by UV-Vis.
[4] abbreviates: incubated at 37° C. in PBS for one day after wash 1, by MS.
[5] abbreviates: incubated at 37° C. in PBS for one day after wash 1, by UV-Vis.

In test [1] (YFTGAIIGNFY 5 mg/mL), `COc1cc2c(cc1OC)C(=O)C(CC1CCN(Cc3ccccc3)CC1)C2` (stereo not drawn) [donepezil] displayed a capturing efficiency of 14%. For the same compound, in test [1] (YFTGAIIGNFY gel 5 mg/mL, by MS), the “AD compound captured, Wash 1” value was 154 ± 7 µM; the “AD compound captured, Wash 2” value stood at 141 ± 10 µM; the “AD compound captured, Wash 3” value stood at 129 ± 24 µM. Moreover, in test [1] (setting [3]), the “AD compound captured, Wash 1” value worked out at 154 ± 11 µM; the “AD compound captured, Wash 2” value came out at 135 ± 8 µM; the “AD compound captured, Wash 3” value was determined as 117 ± 5 µM. Further, in test [2] (setting [4]), the “AD compound captured after incubation, Wash 2” value was 128 ± 12 µM and the “AD compound captured after incubation, Wash 3” value turned out to be 120 ± 18 µM. In addition, in test [2] (setting [5]), the “AD compound captured after incubation, Wash 2” value was 121 ± 25 µM and the “AD compound captured after incubation, Wash 3” value turned out to be 110 ± 31 µM.
For `Nc1c2c(nc3ccccc13)CCCC2` [tacrine], in test [1] ([…] 5 mg/mL), the capturing efficiency result is on record as “approximately 8%”. Also, in test [1] ([…] gel 5 mg/mL, by MS), the “AD compound captured, Wash 1” value worked out at 98 ± 9 µM; the “AD compound captured, Wash 2” value stood at 75 ± 4 µM; the “AD compound captured, Wash 3” value was determined as 63 ± 8 µM. Besides, in test [1] ([…] gel 5 mg/mL, by UV-Vis), the “AD compound captured, Wash 1” value amounted to 90 ± 4 µM; the “AD compound captured, Wash 2” value is 80 ± 5 µM; the “AD compound captured, Wash 3” value was 73 ± 5 µM.
